According to ChEMBL document CHEMBL3228010, “Potential antitumor agents. 29. Quantitative structure-activity relationships for the antileukemic bisquaternary ammonium heterocycles” (J Med Chem, 1979):

Tests used:
L1210 [1] = assay: Antitumor activity against mouse L1210 cells […] in ip dosed C3H X DBA2 F1 hybrid mouse on day 0 and dosed at LD10 level once daily on days 1 to 5 assessed as increase in life span relative to control; type: functional
[2] = Displacement of ethidium from poly[d(G-C)]-poly[d(G-C)] DNA (unknown origin) by fluorimetric method
[3] = Lipophilic-hydrophilic balance, Rm of the compound by partition chromatography; type: physicochemical
[4] = Displacement of ethidium from poly[d(A-T)]-poly[d(A-T)] DNA by fluorimetric method
Mus musculus = assay: Toxicity in ip dosed C3H X DBA2 F1 hybrid mouse […] with mouse L1210 cells on day 0 and dosed once daily on days 1 to 5 measured after 50 days; type: organism-based; details: in vivo, 1200 h
L1210 [5] = assay: Antitumor activity against mouse L1210 cells […] in ip dosed C3H X DBA2 F1 hybrid mouse on day 0 and dosed once daily on days 1 to 5 assessed as increase in life span relative to control; type: functional
Bos taurus = organism: Bos taurus; assay: Displacement of ethidium from calf thymus DNA by fluorimetric method

C/C(=N\NC(=N)N)c1ccc(NC(=O)Nc2ccc(Nc3c4ccccc4[n+](C)c4cc(N)ccc34)cc2)cc1.Cl.[Cl-]
log(ILSmax) (L1210 [1]): 2.55
C50 [2]: 0.2 µM
Rm [3]: 0.69
C50 [4]: 0.09 µM
LD10 (Mus musculus): 22 mg/kg
D40 (L1210 [5]): 0.3 mg/kg
C50 (Bos taurus): 0.13 µM

C[n+]1cccc(NC(=O)c2ccc(NC(=O)c3ccc(C(=O)Nc4ccc(C(=O)Nc5ccc[n+](C)c5)c5ccccc45)cc3)cc2)c1.Cc1ccc(S(=O)(=O)[O-])cc1.Cc1ccc(S(=O)(=O)[O-])cc1
log(ILSmax) (L1210 [1]): 1.65
C50 [2]: 2.6 µM
Rm [3]: 0.08
C50 [4]: 2.3 µM
LD10 (Mus musculus): 75 mg/kg
D40 (L1210 [5]): 72 mg/kg
C50 (Bos taurus): 2.2 µM

C[n+]1ccc(Nc2ccc(NC(=O)c3ccc(Nc4cc[n+](C)c5cc(N)ccc45)cc3)cc2)cc1.[Br-].[Br-]
log(ILSmax) (L1210 [1]): 2.11
C50 [2]: 1.4 µM
Rm [3]: 0.08
C50 [4]: 0.23 µM
LD10 (Mus musculus): 11 mg/kg
D40 (L1210 [5]): 2 mg/kg
C50 (Bos taurus): 0.68 µM

C[n+]1cccc2cc(NC(=O)c3ccc(C(=O)Nc4ccc(NC(=O)c5ccc6c(ccc[n+]6C)c5)cc4)cc3)ccc21.Cc1ccc(S(=O)(=O)[O-])cc1.Cc1ccc(S(=O)(=O)[O-])cc1
log(ILSmax) (L1210 [1]): 1.65
C50 [2]: 0.8 µM
Rm [3]: -0.57
C50 [4]: 0.35 µM
LD10 (Mus musculus): 90 mg/kg
D40 (L1210 [5]): 80 mg/kg
C50 (Bos taurus): 0.3 µM

CCC[n+]1ccc(Nc2ccc(NC(=O)c3ccc(Nc4cc[n+](CCC)c5ccc(N)cc45)cc3)cc2)cc1.[Br-].[Br-]
log(ILSmax) (L1210 [1]): 2.07
C50 [2]: 1.1 µM
Rm [3]: 0.46
C50 [4]: 0.1 µM
LD10 (Mus musculus): 10 mg/kg
D40 (L1210 [5]): 1.8 mg/kg
C50 (Bos taurus): 0.68 µM

COc1ccc2c(c1)c(Nc1ccc(C(=O)Nc3ccc(Nc4cc[n+](C)cc4)cc3)cc1)cc[n+]2C.Cc1ccc(S(=O)(=O)[O-])cc1.Cc1ccc(S(=O)(=O)[O-])cc1
log(ILSmax) (L1210 [1]): 2.2
C50 [2]: 1.15 µM
Rm [3]: 0.46
C50 [4]: 0.19 µM
LD10 (Mus musculus): 50 mg/kg
D40 (L1210 [5]): 1.5 mg/kg
C50 (Bos taurus): 0.68 µM

C[n+]1cccc(NC(=O)c2ccc(NC(=O)c3ccc(C(=O)Nc4ccc(C(=O)Nc5ccc[n+](C)c5)c(N)c4)cc3N)cc2)c1.Cc1ccc(S(=O)(=O)[O-])cc1.Cc1ccc(S(=O)(=O)[O-])cc1
log(ILSmax) (L1210 [1]): 2.32
C50 [2]: 0.54 µM
Rm [3]: -0.7
C50 [4]: 0.15 µM
LD10 (Mus musculus): 9 mg/kg
D40 (L1210 [5]): 1.4 mg/kg
C50 (Bos taurus): 0.39 µM

C[n+]1ccc(Nc2ccc(C(=O)Nc3ccc(Nc4c5ccccc5[n+](C)c5cc(N)ccc45)cc3)cc2)cc1.[Cl-].[Cl-]
log(ILSmax) (L1210 [1]): 2.23
C50 [2]: 0.16 µM
Rm [3]: 0.47
C50 [4]: 0.06 µM
LD10 (Mus musculus): 37 mg/kg
D40 (L1210 [5]): 2 mg/kg
C50 (Bos taurus): 0.11 µM

Cc1c(C(=O)Nc2ccc(C(=O)Nc3ccc[n+](C)c3)cc2)ccc(C(=O)Nc2ccc(C(=O)Nc3ccc[n+](C)c3)cc2)c1C.Cc1ccc(S(=O)(=O)[O-])cc1.Cc1ccc(S(=O)(=O)[O-])cc1
log(ILSmax) (L1210 [1]): 1.65
C50 [2]: 12 µM
Rm [3]: 0.47
C50 [4]: 5.4 µM
LD10 (Mus musculus): 19 mg/kg
D40 (L1210 [5]): 14.7 mg/kg
C50 (Bos taurus): 6.9 µM

C[n+]1cc(-c2ccc(NC(=O)/C=C/c3ccc(C(=O)Nc4ccc(-c5c[n+](C)c(N)nc5N)cc4)cc3)cc2)c(N)nc1N.Cc1ccc(S(=O)(=O)[O-])cc1.Cc1ccc(S(=O)(=O)[O-])cc1
log(ILSmax) (L1210 [1]): 2.2
C50 [2]: 0.57 µM
Rm [3]: -0.62
C50 [4]: 0.11 µM
LD10 (Mus musculus): 50 mg/kg
D40 (L1210 [5]): 10.7 mg/kg
C50 (Bos taurus): 0.4 µM

C[n+]1ccc(Nc2ccc(C(=O)Nc3ccc(Nc4cc[n+](C)c5cc(N)ccc45)cc3)c(N)c2)cc1.Cc1ccc(S(=O)(=O)[O-])cc1.Cc1ccc(S(=O)(=O)[O-])cc1
log(ILSmax) (L1210 [1]): 2.38
C50 [2]: 0.77 µM
Rm [3]: -0.12
C50 [4]: 0.14 µM
LD10 (Mus musculus): 20 mg/kg
D40 (L1210 [5]): 1.7 mg/kg
C50 (Bos taurus): 0.44 µM

COc1cc(NC(=O)c2ccc(Nc3cc[n+](C)cc3)cc2)ccc1Nc1cc[n+](C)c2cc(N)ccc12.[Br-].[Br-]
log(ILSmax) (L1210 [1]): 2.23
C50 [2]: 1.18 µM
Rm [3]: 0.14
C50 [4]: 0.15 µM
LD10 (Mus musculus): 14 mg/kg
D40 (L1210 [5]): 3 mg/kg
C50 (Bos taurus): 0.69 µM

C[n+]1ccc(Nc2ccc(C(=O)Nc3ccc(Nc4cc[n+](C)c5ccc(N)cc45)cc3)c(N)c2)cc1.[Br-].[Br-]
log(ILSmax) (L1210 [1]): 2.43
C50 [2]: 0.91 µM
Rm [3]: -0.3
C50 [4]: 0.15 µM
LD10 (Mus musculus): 20 mg/kg
D40 (L1210 [5]): 1 mg/kg
C50 (Bos taurus): 0.6 µM

C[n+]1cccc(NC(=O)c2ccc(NC(=O)c3ccc(C(=O)Nc4ccc(NC(=N)N)cc4)cc3)cc2)c1.I.[I-]
log(ILSmax) (L1210 [1]): 2.18
C50 [2]: 2.07 µM
Rm [3]: -0.12
C50 [4]: 0.91 µM
LD10 (Mus musculus): 8 mg/kg
D40 (L1210 [5]): 0.2 mg/kg
C50 (Bos taurus): 1.38 µM

C[n+]1ccc(Nc2ccc(NC(=O)/C=C/c3ccc(C(=O)Nc4ccc(Nc5cc[n+](C)cc5)c(N)c4)cc3)cc2N)cc1.Cc1ccc(S(=O)(=O)[O-])cc1.Cc1ccc(S(=O)(=O)[O-])cc1
log(ILSmax) (L1210 [1]): 2.3
C50 [2]: 1.5 µM
Rm [3]: 0.04
C50 [4]: 0.08 µM
LD10 (Mus musculus): 6.7 mg/kg
D40 (L1210 [5]): 1.4 mg/kg
C50 (Bos taurus): 1.5 µM

C[n+]1cccc(NC(=O)c2ccc(NC(=O)c3ccc(C(=O)Nc4ccc(C(=O)Nc5ccc[n+](C)c5)c(N)c4)cc3)cc2N)c1.Cc1ccc(S(=O)(=O)[O-])cc1.Cc1ccc(S(=O)(=O)[O-])cc1
log(ILSmax) (L1210 [1]): 2.35
C50 [2]: 0.39 µM
Rm [3]: -0.75
C50 [4]: 0.12 µM
LD10 (Mus musculus): 44 mg/kg
D40 (L1210 [5]): 2.4 mg/kg
C50 (Bos taurus): 0.26 µM

C[n+]1cccc(NC(=O)c2ccc(NC(=O)c3ccc(C(=O)Nc4ccc(N/N=N/c5ccc(C(=N)N)cc5)cc4)cc3)cc2)c1.Cc1ccc(S(=O)(=O)O)cc1.Cc1ccc(S(=O)(=O)[O-])cc1
log(ILSmax) (L1210 [1]): 2.1
C50 [2]: 0.64 µM
Rm [3]: -0.77
C50 [4]: 0.22 µM
LD10 (Mus musculus): 35 mg/kg
D40 (L1210 [5]): 6 mg/kg
C50 (Bos taurus): 0.48 µM

C[n+]1cccc(NC(=O)c2ccc(NC(=O)c3ccc(C(=O)Nc4ccc(NC(=N)NC(=N)N)cc4)cc3)cc2)c1.I.[I-]
log(ILSmax) (L1210 [1]): 2.2
C50 [2]: 1.71 µM
Rm [3]: -0.4
C50 [4]: 0.77 µM
LD10 (Mus musculus): 11 mg/kg
D40 (L1210 [5]): 1 mg/kg
C50 (Bos taurus): 1.14 µM

C[n+]1cccc(NC(=O)c2ccc(NC(=O)c3ccc(Nc4c5ccccc5[n+](C)c5ccc(N)cc45)cc3)cc2)c1.[Cl-].[Cl-]
log(ILSmax) (L1210 [1]): 2.36
C50 [2]: 0.25 µM
Rm [3]: 0.44
C50 [4]: 0.09 µM
LD10 (Mus musculus): 55 mg/kg
D40 (L1210 [5]): 9 mg/kg
C50 (Bos taurus): 0.17 µM

C[n+]1cc(-c2ccc(NC(=O)c3ccc(Nc4cc[n+](C)c5ccc(N)cc45)cc3N)cc2)c(N)nc1N.Cc1ccc(S(=O)(=O)[O-])cc1.Cc1ccc(S(=O)(=O)[O-])cc1
log(ILSmax) (L1210 [1]): 2.41
C50 [2]: 1.08 µM
Rm [3]: -0.25
C50 [4]: 0.11 µM
LD10 (Mus musculus): 75 mg/kg
D40 (L1210 [5]): 4.4 mg/kg
C50 (Bos taurus): 0.62 µM
